Measurements published in US20080171742A1, “4-(Pyrid-2-Yl) Amino Substituted Pyrimidine as Protein Kinase Inhibitors” (AsraZeneca, priority 2005, published 2008).
pIC50: −log10 of the molar value.

Tested on: murine fibroblasts (NIH3T3) over-expressing human IGF-1 receptor
Experiment: Inhibition of IGF-stimulated cell proliferation (BrdU incorporation), Test (c)
Type: cell-based
Conditions: NIH3T3/IGFR cells, IGF-1 20 ng/ml
Method: The construction of murine fibroblasts (NIH3T3) over-expressing human IGF-1 receptor has been described by Lammers et al (EMBO J, 8, 1369-1375, 1989). These cells show a proliferative response to IGF-I which can be measured by BrdU incorporation into newly synthesised DNA. Compound potency was determined as causing inhibition of the IGF-stimulated proliferation in the following assay:
Compounds are initially dissolved in DMSO to 10 mM, followed by dilutions in DMEM+1% FCS+glutamine to give a range from […] in 1-0.00045% DMSO final concentration in assay well.
Exponentially growing NIH3T3/IGFR cells were harvested and seeded in complete growth medium into a flat-bottomed 96 well tissue culture grade plate (Costar 3525) at 1.2×10^4 cells per well in a volume of 100 μl.
Growth medium was carefully removed from each well using a multi-channel pipette. Wells were carefully rinsed three times with 200 μl with HBSS. 100 μl of starvation medium was added to each well and the plate was re-incubated for 24 hours.
50 μl of a 4× concentrate of test compound was added to appropriate wells. Cells were incubated for 30 minutes with compound alone before the addition of IGF. […]
The incorporation of BrdU in the cells (after a 4 h incorporation period) was assessed using the BrdU Cell Proliferation Elisa according to the manufacturer's protocol.

| SMILES | pIC50 |
| --- | --- |
| Cc1ccc(Nc2cc(C)nc(N3CCC[C@H]3c3cc(-c4ccccn4)no3)n2)nc1 [Example 13, S-6-Methyl-2-{2-[3-(pyrid-2-yl)isoxazol-5-yl]pyrrolidin-1-yl}-4-(5-methylpyrid-2-ylamino)pyrimidine] | 6.89 |
| Cc1cc(Nc2ccccn2)nc(N2CCC[C@H]2c2cc(-c3ccccn3)no2)n1 [Example 1, S-6-Methyl-2-{2-[3-(pyrid-2-yl)isoxazol-5-yl]pyrrolidin-1-yl}-4-(pyrid-2-ylamino)pyrimidine] | 6.51 |
